In data set [1] the target is T1, Recombinant human VAP-1 SSAO (Homo sapiens, UniProt Q16853).
T1 construct: expressed in transfected cells; host or cells: Chinese Hamster Ovary (CHO) cells; NP40 lysate supernatant used directly
T1 sequence (Q16853 1-763): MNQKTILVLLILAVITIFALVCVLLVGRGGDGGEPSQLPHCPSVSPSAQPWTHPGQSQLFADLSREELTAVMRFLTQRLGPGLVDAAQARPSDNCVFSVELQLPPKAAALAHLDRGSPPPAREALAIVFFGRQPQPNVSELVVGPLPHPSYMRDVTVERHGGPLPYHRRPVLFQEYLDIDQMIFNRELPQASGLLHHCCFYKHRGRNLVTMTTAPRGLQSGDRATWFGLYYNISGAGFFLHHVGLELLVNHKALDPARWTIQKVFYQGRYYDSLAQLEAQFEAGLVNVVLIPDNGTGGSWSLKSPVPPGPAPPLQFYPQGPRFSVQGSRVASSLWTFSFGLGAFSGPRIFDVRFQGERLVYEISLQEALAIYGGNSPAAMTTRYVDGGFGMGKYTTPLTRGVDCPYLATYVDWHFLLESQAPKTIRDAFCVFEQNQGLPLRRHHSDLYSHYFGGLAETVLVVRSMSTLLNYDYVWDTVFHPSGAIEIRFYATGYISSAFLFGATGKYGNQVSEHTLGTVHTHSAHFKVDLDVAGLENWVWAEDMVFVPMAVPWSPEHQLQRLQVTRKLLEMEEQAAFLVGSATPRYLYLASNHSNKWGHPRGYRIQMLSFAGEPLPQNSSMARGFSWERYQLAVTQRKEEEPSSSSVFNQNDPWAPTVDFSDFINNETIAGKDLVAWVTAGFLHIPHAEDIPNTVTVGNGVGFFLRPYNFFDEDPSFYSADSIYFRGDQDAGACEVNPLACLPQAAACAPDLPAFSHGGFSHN
In words: In vitro inhibition of VAP-1 SSAO activity (coupled colourimetric method). Conditions: for Selectivity for VAP-1 SSAO over MAO: ratio of total rat MAO IC50 to human VAP-1 SSAO IC50; for IC50: recombinant human VAP-1 SSAO in CHO cell lysate, 1 mM benzylamine, pH 7.6, 37° C., read-out: VAP-1 SSAO inhibitory activity IC50. Type of data set: biochemical. On the procedure:
VAP-1 SSAO activity was measured using the coupled colourimetric method essentially as described for monoamine oxidase and related enzymes (Holt, A., et al., Anal. Biochem. 244:384-392 (1997)). Recombinant human VAP-1 SSAO expressed in Chinese Hamster Ovary (CHO) cells was used as a source of VAP-1 SSAO for activity measurements. Native CHO cells have negligible SSAO activity. These cells and their culture have previously been described (Smith, D. J., et al., J. Exp. Med. 188:17-27 (1998)). A cell lysate was prepared by suspending approximately 3.6×10^8 cells in 25 ml lysis buffer (150 mM NaCl, 10 mM Tris-Base pH 7.2, 1.5 mM MgCl2, 1% NP40) and incubating at 4° C. overnight on a rotating table. The lysate was clarified by centrifugation at 18000 g for 5 min at room temperature and the supernatant used directly in the assay. The VAP1 SSAO assay was performed in 96 well microtitre plates as follows. To each well was added a predetermined amount of inhibitor if required. The amount of inhibitor varied in each assay but was generally at a final concentration of between 1 nM and 50 μM. Controls lacked inhibitor. The inhibitor was in total volume of […] in water. The following reagents were then added. 0.2M potassium phosphate buffer pH 7.6 to a total reaction volume of 200 μl, 45 μl of freshly made chromogenic solution containing 1 mM 2,4-dichlorophenol, 500 μM 4-aminoantipyrine and 4 U/ml horseradish peroxidase and an amount of CHO cell lysate containing VAP-1 SSAO that caused a change of 0.6 A490 per h. This was within the linear response range of the assay. The plates were incubated for 30 min at 37° C. and the background absorbance measured at 490 nm using a Wallac Victor II multilabel counter. To initiate the enzyme reaction 20 μl 10 mM benzylamine (final concentration=1 mM) was added and the plate incubated for 1 h at 37° C. The increase in absorbance, reflecting VAP-1 SSAO activity, was measured at490 nm. Inhibition was presented as percent inhibition compared to control after correcting for background absorbance and IC50 values calculated using GraphPad Prism.

Here are results for 16 molecules from US6982286B2, “Carbocyclic hydrazino inhibitors of copper-containing amine oxidases” (Biotie Therapies Corp., priority 2001, dated 2006).

SMILES strings stand for the structures. Counter-ions that a name gives are not always drawn.

As to `CN(N)[C@H]1Cc2ccccc2[C@@H]1O` (as salt: maleate) [Compound 1, (1S,2S)-2-(1-methylhydrazino)-1-indanol hydrogenmaleate], the melting point fell in the range of 104 to 106 °C.

Molecule `CN(N)[C@@H]1Cc2ccccc2[C@H]1O` (as salt: maleate) [Compound 6, (1R,2R)-2-(1-methylhydrazino)-1-indanol hydrogenmaleate] came in with a melting point of 104 to 106 °C.

Molecule `CO[C@H]1c2ccccc2C[C@@H]1N(C)N` (as salt: maleate) [Compound 19, (1S,2S)-2-(1-methylhydrazino)-1-methoxyindane Hydrogenmaleate] came in with a melting point of 113 to 115 °C.

As for `CCN(N)[C@@H]1Cc2ccccc2[C@H]1O` (racemic) [Compound 2, (1R*,2R*)-2-(1-Ethylhydrazino)-1-indanol hydrogenmaleate], in data set [1], the “Selectivity for VAP-1 SSAO over MAO” value is on record as 4 and the half-inhibitory concentration (IC50) was 5300 nM.

Consider `CN(N)[C@@H]1Cc2ccccc2[C@H]1O` (relative stereo) [Compound 4, (1R,*2R*)-2-(1-Methylhydrazino)-1-indanol hydrogenmaleate], for which, in data set [1], the “Selectivity for VAP-1 SSAO over MAO” value turned out to be 32 and the 50% inhibitory concentration (IC50) is 660 nM.

Take `CN(N)[C@H]1Cc2ccccc2[C@@H]1O` [Compound 1, (1S,2S)-2-(1-methylhydrazino)-1-indanol hydrogenmaleate]: in data set [1], the “Selectivity for VAP-1 SSAO over MAO” value is 31 and the 50% inhibitory concentration (IC50) came to 700 nM.

As for `CN(N)[C@@H]1Cc2ccccc2[C@H]1O` [Compound 6, (1R,2R)-2-(1-methylhydrazino)-1-indanol hydrogenmaleate], in data set [1], the “Selectivity for VAP-1 SSAO over MAO” value came out at 29 and the IC50 amounted to 650 nM.

`CN(N)[C@H]1Cc2ccccc2[C@@H]1O` [Compound 7, (1S,2S)-2-(1-methylhydrazino)-1-indanol fumarate]: the “Selectivity for VAP-1 SSAO over MAO” value in data set [1] (fumarate) stood at 28. The IC50 in data set [1] stood at 470 nM.

As for `CN(N)[C@@H]1Cc2ccccc2[C@H]1O` [Compound 8, (1R,2R)-2-(1-methylhydrazino)-1-indanol fumarate], the “Selectivity for VAP-1 SSAO over MAO” value in data set [1] (fumarate) is 21. The half-inhibitory concentration (IC50) in data set [1] was found to be 560 nM.

Regarding `CN(N)[C@H]1Cc2ccccc2[C@@H]1O` [Compound 9, (1S,2S)-2-(1-methylhydrazino)-1-indanol succinate], in data set [1] (succinate), the “Selectivity for VAP-1 SSAO over MAO” value is on record as 26. Also, the half-inhibitory concentration (IC50) in data set [1] stood at 620 nM.

Take `CN(N)[C@@H]1Cc2ccccc2[C@H]1O` [Compound 10, (1R,2R)-2-(1-methylhydrazino)-1-indanol succinate]: in data set [1] (succinate), the “Selectivity for VAP-1 SSAO over MAO” value was determined as 23. For the same molecule, the IC50 in data set [1] worked out at 660 nM.

Take `CN(N)[C@H]1Cc2ccccc2[C@@H]1O` [Compound 11, (1S,2S)-2-(1-methylhydrazino)-1-indanol (S,S)-tartrate]: in data set [1], the “Selectivity for VAP-1 SSAO over MAO” value is reported as 31 and the IC50 was 710 nM.

Turning to `CN(N)[C@@H]1Cc2ccccc2[C@H]1O` [Compound 12, (1R,2R)-2-(1-methylhydrazino)-1-indanol (S,S)-tartrate], in data set [1], the “Selectivity for VAP-1 SSAO over MAO” value is 30 and the IC50 worked out at 660 nM.

Turning to `CN(N)[C@H]1Cc2ccccc2[C@@H]1O` [Compound 13, (1S,2S)2-(1-methylhydrazino)-1-indanol (R,R)-tartrate], in data set [1], the “Selectivity for VAP-1 SSAO over MAO” value turned out to be 29 and the IC50 was 660 nM.

`CN(N)[C@@H]1Cc2ccccc2[C@H]1O` [Compound 14, (1R,2R)-2-(1-methylhydrazino)-1-indanol (R,R)-tartrate]: in data set [1], the “Selectivity for VAP-1 SSAO over MAO” value was found to be 28 and the IC50 was 710 nM.

Turning to `CO[C@H]1c2ccccc2C[C@@H]1N(C)N` [Compound 19, (1S,2S)-2-(1-methylhydrazino)-1-methoxyindane Hydrogenmaleate], in data set [1], the “Selectivity for VAP-1 SSAO over MAO” value is recorded as 3 and the IC50 turned out to be 4320 nM.
